Laboratory results: patent US4489163A, “rCRF and analogs” (The Salk Institute for Biological Studies, priority 1983, dated 1984)
Where a SMILES comes first, the peptide text is derived from it. [ ]: non-standard residue; d: D form. The star is where a group is joined. Nle = CCCC[C@H](N)C(=O)O; Bz = O=C(c1ccccc1)*

Legend:
[1] = system: secretion of ACTH and β-endorphin; settings: reported; cited from earlier work
[2] = mammals; reported; cited from earlier work
[3] = system: ACTH and β-endorphin-like (β-END-LI) secretion; experiment: ACTH and β-END-LI secretion in vivo after intravenous administration; parameters: species or system rats; settings: for stimulation of secretion of ACTH and β-END-LI: general procedure of Example III, in vitro or in vivo not stated
Source text: (§1) The synthetic and the natural rCRF were examined for their effects on the secretion of ACTH and β-endorphin in vitro and the synthetic rCRF was also examined in vivo.

[4] = lowering of blood pressure in rats; assay type: in vivo; settings: for lowering of blood pressure compared with rCRF: relative to rCRF, species not stated; for lowering of blood pressure: species not given, general procedure of Example III
[5] = system: cultured rat pituitary cells; experiment: secretion of ACTH and β-endorphin by cultured rat pituitary cells in vitro; assay type: cell-based; settings: in vitro
Source text: as §1

Row | Compound | stimulation of secretion of ACTH and β-END-LI [3] | lowering of blood pressure [4] | also measured
1 | CC[C@H](C)[C@H](NC(=O)[C@@H](NC(=O)[C@H](CC(=O)O)NC(=O)[C@H](CC(C)C)NC(=O)[C@H](CC(C)C)NC(=O)[C@H](CC(C)C)NC(=O)[C@H](CCCNC(=N)N)NC(=O)[C@H](CC(N)=O)NC(=O)[C@H](CC(N)=O)NC(=O)[C@H](C)NC(=O)[C@H](C)NC(=O)[C@H](CCC(N)=O)NC(=O)[C@H](CCC(N)=O)NC(=O)[C@H](CCCCN)NC(=O)[C@H](CCC(=O)O)NC(=O)[C@H](CCCCN)NC(=O)[C@H](CCC(=O)O)NC(=O)[C@H](CCC(N)=O)NC(=O)[C@H](CCCCN)NC(=O)[C@H](CCC(=O)O)NC(=O)[C@@H](NC(=O)[C@H](CCC(=O)O)NC(=O)[C@@H](NC(=O)[C@H](CCSC)NC(=O)[C@H](CCCCN)NC(=O)[C@H](CCCNC(=N)N)NC(=O)[C@H](CC(C)C)NC(=O)[C@H](CC(C)C)NC(=O)[C@H](CCC(=O)O)NC(=O)[C@H](CC(C)C)NC(=O)[C@H](CO)NC(=O)[C@H](CC(C)C)NC(=O)[C@H](CC(=O)O)NC(=O)[C@@H](NC(=O)[C@H](CO)NC(=O)[C@@H](NC(=O)[C@@H]1CCCN1C(=O)[C@@H]1CCCN1C(=O)CNC(=O)[C@@H]1CCC(=O)N1)[C@@H](C)CC)[C@@H](C)CC)[C@@H](C)CC)[C@@H](C)CC)[C@@H](C)O)C(N)=O [Sauvagine] | – | – | biological activity in stimulating the secretion of ACTH and β-endorphin [1]: stimulating the secretion of ACTH and β-endorphin; biological activity in lowering blood pressure [2]: biological activity in lowering blood pressure in mammals
2 | H-SEEPPISLDLTFELLREVLEVARAEQLAQQAHSNRKLMEII-NH2 [IX] | stimulates the secretion of ACTH and β-END-LI | very significant lowering of blood pressure | lowering of blood pressure compared with rCRF [4]: to a great extent than rCRF
3 | H-SEEPPISLDLTFHLLREVAEMTRAEQLAQQAHSNRKLMEII-NH2 [VII] | stimulates the secretion of ACTH and β-END-LI | very significant lowering of blood pressure | –
4 | H-SEEPPISLDLTFHLLREVLE[Nle]ARAEQLAQQAYSNRKLMEII-NH2 [XV] | stimulates the secretion of ACTH and β-END-LI | very significant lowering of blood pressure | lowering of blood pressure compared with rCRF [4]: to a greater extent than rCRF
5 | CC[C@H](C)[C@H](NC(=O)[C@@H](NC(=O)[C@H](CC(=O)O)NC(=O)[C@H](CC(C)C)NC(=O)[C@H](CC(C)C)NC(=O)[C@H](CC(C)C)NC(=O)[C@H](CCCNC(=N)N)NC(=O)[C@H](CC(N)=O)NC(=O)[C@H](CC(N)=O)NC(=O)[C@H](C)NC(=O)[C@H](C)NC(=O)[C@H](CCC(N)=O)NC(=O)[C@H](CCC(N)=O)NC(=O)[C@H](CCCCN)NC(=O)[C@H](CCC(=O)O)NC(=O)[C@H](CCCCN)NC(=O)[C@H](CCC(=O)O)NC(=O)[C@H](CCC(N)=O)NC(=O)[C@H](CCCCN)NC(=O)[C@H](CCCNC(=N)N)NC(=O)[C@H](C)NC(=O)[C@H](CCC(=O)O)NC(=O)[C@@H](NC(=O)[C@H](CCSC)NC(=O)[C@H](CCCCN)NC(=O)[C@H](CCCNC(=N)N)NC(=O)[C@H](CC(C)C)NC(=O)[C@H](CC(C)C)NC(=O)[C@H](CCC(=O)O)NC(=O)[C@H](CC(C)C)NC(=O)[C@H](CO)NC(=O)[C@H](CC(C)C)NC(=O)[C@H](CC(=O)O)NC(=O)[C@@H](NC(=O)[C@H](CO)NC(=O)[C@@H](NC(=O)[C@@H]1CCCN1C(=O)[C@@H]1CCCN1C(=O)CNC(=O)[C@@H]1CCC(=O)N1)[C@@H](C)CC)[C@@H](C)CC)[C@@H](C)CC)[C@@H](C)CC)C(N)=O [XVII] | stimulates the secretion of ACTH and β-END-LI | very significant lowering of blood pressure | –
6 | H-Ser-Gln-Glu-Pro-Pro-Ile-Ser-Leu-Asp-Leu-Thr-Phe-His-Leu-Leu-Arg-Glu-Val-Leu-Glu-Met-Thr-Lys-Ala-Asp-Gln-Leu-Ala-Gln-Gln-Ala-His-Ser-Asn-Arg-Lys-Leu- Leu-Asp-Ile-Ala-NH2 (H-SQEPPISLDLTFHLLREVLEMTKADQLAQQAHSNRKLLDIA-NH2) [oCRF, ovine corticotropin releasing factor characterized in 1981] | – | – | biological activity in stimulating the secretion of ACTH and β-endorphin [1]: stimulating the secretion of ACTH and β-endorphin; biological activity in lowering blood pressure [2]: biological activity in lowering blood pressure in mammals
7 | H-SQEPPISLDLTFHLLREVLEMAKAEQLAQQAHSNRKLLEII-NH2 [XIV] | stimulates the secretion of ACTH and β-END-LI | very significant lowering of blood pressure | –
8 | H-SEEPPISLDLTFHLLREVLEAARAEQLAQQAHSNRKLLEI[Nle]-NH2 [XI] | stimulates the secretion of ACTH and β-END-LI | very significant lowering of blood pressure | –
9 | CC[C@H](C)[C@H](NC(=O)[C@@H](NC(=O)[C@H](CC(=O)O)NC(=O)[C@H](CCSC)NC(=O)[C@H](CC(C)C)NC(=O)[C@H](CC(C)C)NC(=O)[C@H](CCCNC(=N)N)NC(=O)[C@H](CC(N)=O)NC(=O)[C@H](CC(N)=O)NC(=O)[C@H](C)NC(=O)[C@H](C)NC(=O)[C@H](CCC(N)=O)NC(=O)[C@H](CCC(N)=O)NC(=O)[C@H](CCCCN)NC(=O)[C@H](CC(C)C)NC(=O)[C@H](CCCCN)NC(=O)[C@H](CCC(=O)O)NC(=O)[C@H](CCC(N)=O)NC(=O)[C@H](CCCCN)NC(=O)[C@H](CCC(=O)O)NC(=O)[C@@H](NC(=O)[C@H](CCC(=O)O)NC(=O)[C@@H](NC(=O)[C@H](CCSC)NC(=O)[C@H](CCCCN)NC(=O)[C@H](CCCNC(=N)N)NC(=O)[C@H](CC(C)C)NC(=O)[C@H](CC(C)C)NC(=O)[C@H](CCC(=O)O)NC(=O)[C@H](CC(C)C)NC(=O)[C@H](CO)NC(=O)[C@H](CC(C)C)NC(=O)[C@H](CC(=O)O)NC(=O)[C@@H](NC(=O)[C@H](CO)NC(=O)[C@@H](NC(=O)[C@@H]1CCCN1C(=O)[C@@H]1CCCN1C(=O)CNC(=O)[C@@H]1CCC(=O)N1)[C@@H](C)CC)[C@@H](C)CC)[C@@H](C)CC)[C@@H](C)CC)[C@@H](C)O)C(N)=O [XVIII] | stimulates the secretion of ACTH and β-END-LI | very significant lowering of blood pressure | –
10 | Ac-PPISLDLTFHLLREVLEMARAEQLAQQAHSNRKLMDII-NH2 [XIII] | stimulates the secretion of ACTH and β-END-LI | very significant lowering of blood pressure | lowering of blood pressure compared with rCRF [4]: to a greater extent than rCRF
11 | H-SEEPPIS[Nle]DLSFHLLREVLEMARAEQLAQQAHLNRKLMEII-NH2 [X] | stimulates the secretion of ACTH and β-END-LI | very significant lowering of blood pressure | –
12 | CCCC[C@H](NC(=O)[C@@H](NC(=O)[C@H](CC(C)C)NC(=O)[C@H](CC(=O)O)NC(=O)[C@H](CC(C)C)NC(=O)[C@H](CO)NC(=O)[C@@H](NC(=O)[C@@H]1CCCN1C(=O)[C@@H]1CCCN1C(=O)[C@H](CCC(=O)O)NC(=O)CNC(=O)c1ccccc1)[C@@H](C)CC)[C@@H](C)O)C(=O)N[C@@H](Cc1c[nH]cn1)C(=O)N[C@@H](CC(C)C)C(=O)N[C@@H](CC(C)C)C(=O)N[C@@H](CCCNC(=N)N)C(=O)N[C@@H](CCC(=O)O)C(=O)N[C@H](C(=O)N[C@@H](CC(C)C)C(=O)N[C@@H](CCC(=O)O)C(=O)N[C@@H](CCSC)C(=O)N[C@@H](C)C(=O)N[C@@H](CCCNC(=N)N)C(=O)N[C@@H](C)C(=O)N[C@@H](CCC(=O)O)C(=O)N[C@@H](CCC(N)=O)C(=O)N[C@@H](CC(C)C)C(=O)N[C@@H](C)C(=O)N[C@@H](CCC(N)=O)C(=O)N[C@@H](CCC(N)=O)C(=O)N[C@@H](C)C(=O)N[C@@H](Cc1c[nH]cn1)C(=O)N[C@@H](CO)C(=O)N[C@@H](CC(N)=O)C(=O)N[C@@H](CCCNC(=N)N)C(=O)N[C@@H](CCCCN)C(=O)N[C@@H](CC(C)C)C(=O)N[C@@H](CCSC)C(=O)N[C@@H](CCC(=O)O)C(=O)N[C@H](C(=O)N[C@H](C(N)=O)[C@@H](C)CC)[C@@H](C)CC)C(C)C [XII] (Bz-GEPPISLDLT[Nle]HLLREVLEMARAEQLAQQAHSNRKLMEII-NH2) | stimulates the secretion of ACTH and β-END-LI | very significant lowering of blood pressure | –
13 | CC[C@H](C)[C@H](NC(=O)[C@@H](NC(=O)[C@H](CCC(=O)O)NC(=O)[C@H](CCSC)NC(=O)[C@H](CC(C)C)NC(=O)[C@H](CCCCN)NC(=O)[C@H](CCCNC(=N)N)NC(=O)[C@H](CC(N)=O)NC(=O)[C@H](CO)NC(=O)[C@H](Cc1c[nH]cn1)NC(=O)[C@H](C)NC(=O)[C@H](CCC(N)=O)NC(=O)[C@H](CCC(N)=O)NC(=O)[C@H](C)NC(=O)[C@H](CC(C)C)NC(=O)[C@H](CCC(N)=O)NC(=O)[C@H](CCC(=O)O)NC(=O)[C@H](C)NC(=O)[C@H](CCCNC(=N)N)NC(=O)[C@H](C)NC(=O)[C@H](CCSC)NC(=O)[C@H](CCC(=O)O)NC(=O)[C@H](CC(C)C)NC(=O)[C@@H](NC(=O)[C@H](CCC(=O)O)NC(=O)[C@H](CCCNC(=N)N)NC(=O)[C@H](CC(C)C)NC(=O)[C@H](CC(C)C)NC(=O)[C@H](Cc1c[nH]cn1)NC(=O)[C@H](Cc1ccccc1)NC(=O)[C@@H](NC(=O)[C@H](CC(C)C)NC(=O)[C@H](CC(=O)O)NC(=O)[C@H](CC(C)C)NC(=O)[C@H](CO)NC(=O)[C@@H](NC(=O)[C@@H]1CCCN1C(=O)[C@@H]1CCCN1C(=O)[C@H](CCC(=O)O)NC(=O)[C@H](CCC(=O)O)NC(=O)[C@@H](N)CO)[C@@H](C)CC)[C@@H](C)O)C(C)C)[C@@H](C)CC)C(N)=O [natural rCRF] | – | – | stimulation of secretion of ACTH and β-endorphin in vitro [5]: high potency; stimulation of secretion of ACTH and β-endorphin in vitro ([5]; listed as isolated rCRF): stimulate ACTH and β-endorphin activies; stimulation of ACTH and β-END-LI secretion in vivo (words) ([3]; in vivo, several rat preparations, listed as isolated rCRF): stimulate ACTH and β-endorphin activies
14 | H-PPISIDLSLELLRKMIEIAKQEKEKQQAANNRLLMDTI-NH2 [XVI] | stimulates the secretion of ACTH and β-END-LI | very significant lowering of blood pressure | –
